{
  "source": "patent US20240360133A1",
  "about": "“FUSED TRICYCLIC COMPOUND, PREPARATION METHOD THEREFOR AND APPLICATION THEREOF IN MEDICINE” (Jiangsu Hengrui Pharmaceuticals Co., Ltd., priority 2020, published 2024)",
  "target": "T1, human TLR7 (Homo sapiens, UniProt Q9NYK1)",
  "T1 construct": "host or cells: HEK-Blue hTLR7 (HEK293)",
  "T1 sequence (Q9NYK1 27-1049)": "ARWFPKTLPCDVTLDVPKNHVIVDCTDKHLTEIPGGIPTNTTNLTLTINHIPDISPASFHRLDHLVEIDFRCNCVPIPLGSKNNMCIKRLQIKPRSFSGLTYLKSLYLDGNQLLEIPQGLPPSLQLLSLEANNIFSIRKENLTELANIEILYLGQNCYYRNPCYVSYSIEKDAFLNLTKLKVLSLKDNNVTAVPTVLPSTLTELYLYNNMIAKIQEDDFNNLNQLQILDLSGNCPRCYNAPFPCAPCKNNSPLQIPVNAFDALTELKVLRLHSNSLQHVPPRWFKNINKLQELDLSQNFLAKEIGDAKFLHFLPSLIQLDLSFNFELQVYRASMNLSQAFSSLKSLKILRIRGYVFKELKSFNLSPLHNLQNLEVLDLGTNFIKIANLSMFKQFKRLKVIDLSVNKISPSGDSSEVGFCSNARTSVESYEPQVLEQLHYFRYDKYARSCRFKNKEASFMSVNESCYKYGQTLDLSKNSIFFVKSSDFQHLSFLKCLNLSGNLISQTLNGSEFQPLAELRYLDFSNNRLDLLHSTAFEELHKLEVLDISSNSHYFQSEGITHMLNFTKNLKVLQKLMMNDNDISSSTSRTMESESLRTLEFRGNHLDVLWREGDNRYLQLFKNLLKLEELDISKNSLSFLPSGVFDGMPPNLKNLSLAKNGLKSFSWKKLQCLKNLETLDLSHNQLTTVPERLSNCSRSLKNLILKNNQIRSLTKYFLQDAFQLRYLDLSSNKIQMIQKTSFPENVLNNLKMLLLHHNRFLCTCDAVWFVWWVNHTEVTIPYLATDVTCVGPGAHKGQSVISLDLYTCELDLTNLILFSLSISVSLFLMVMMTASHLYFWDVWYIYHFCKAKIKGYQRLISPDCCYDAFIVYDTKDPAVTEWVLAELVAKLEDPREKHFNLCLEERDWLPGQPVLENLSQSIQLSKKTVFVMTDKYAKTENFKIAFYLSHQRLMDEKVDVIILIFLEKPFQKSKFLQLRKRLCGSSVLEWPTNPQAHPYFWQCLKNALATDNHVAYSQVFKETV",
  "test": "Inhibitory effect on human TLR7 activation pathway (HEK-Blue hTLR7 SEAP reporter)",
  "format": "cell-based",
  "settings": "HEK-Blue hTLR7 cells, 1 μM resiquimod, 20 h, SEAP OD620",
  "experimental": "• 1. HEK-Blue™ hTLR7 cell (Invivogen) • 2. Resiquimod (R848, Invivogen) • 3. Alkaline phosphatase detection medium (Quanti-Blue Detection, Invivogen) • 4. Blasticidin (Invivogen) • 5. Zeocin (Invivogen) • 6. Normocin (Invivogen) • 7. DMEM/HIGH Glucose (GE Healthcare) • 8. Fetal bovine serum (FBS, Gibco) • 9. Phosphate-buffered saline (Shanghai BasalMedia Technologies Co., Ltd.) • 10. Sterile purified water (made in-house by Shanghai Hengrui) • 11. 15 mL centrifuge tube (Corning) • 12. %-well formulating plate (Corning) • 13. 96-well flat-bottom cell culture plate (Corning) • 14. Constant-temperature cell incubator (Thermo scientific) • 15. Constant-temperature incubator (Shanghai Yiheng Scientific Instruments Co., Ltd.) • 16. PHERAstar FS microplate reader (BMG Labtech)\nHEK-Blue™ hTLR7 cells were purchased from Invivogen. These cells are HEK293 cells transfected with the human Toll-like receptor 7 (TLR7) gene and the secreted alkaline phosphatase reporter gene (SEAP). The alkaline phosphatase reporter gene (SEAP) is under the regulation of the IFN—P minimal promoter comprising 5 NF-kB and AP-1 binding sites. Upon activation of TLR7 with an agonist, SEAP secretion is induced via downstream NF-kB and AP-1. After addition of an antagonist compound, the pathway described above is inhibited, and SEAP secretion is reduced. The activity of the compounds for the TLR7 pathway was evaluated by measuring OD620 through the SEAP substrate.\n20 mM test compounds dissolved in 100% DMSO were serially diluted with 100% DMSO to 2000, 400, 80, 16, 3.2, 0.64, 0.128, 0.0256 μM, with blank wells containing 100% DMSO. The compounds and 100% DMSO were then 20-fold diluted in DMEM/HIGH glucose media containing 10% inactivated FBS (complete media, the same applies below). Resiquimod was diluted to 10 μM with sterile water. The 10 μM resiquimod dilution in sterile water was added to a 96-well cell culture plate at 20 μL/well. The above compounds diluted in complete media and 100% DMSO were then added at 20 μL/well to wells containing resiquimod, 20 μL of sterile water and 20 μL of 100% DMSO diluted in the complete medium were added to negative control wells.\nHEK-Blue™ hTLR7 cells were cultured in a DMEM/HIGH glucose medium containing 10% inactivated FBS, 100 μg/mL Normocin, 10 μg/mL blasticidin, and 100 μg/mL Zeocin. Cells that were in a good state of growth and had grown to 70%-80% were collected. The growth medium was discarded, 5-10 mL of PBS pre-heated at 37° C. was added to wash the cells once, and 2-5 mL of pre-heated PBS was added. The cells were cultured at 37° C. for 1-2 min, dispersed by pipetting, transferred to a 15 mL centrifuge tube, and counted, and the cell density was adjusted to 4.8-10′/mL with the complete medium. After density adjustment, 160 μL of the resulting cell suspension was added to the above 96-well cell culture plate to a final number of cells per well of 76,500/well. The final concentration of resiquimod was 1 μM, and the final concentrations of the test compounds were 10,000, 2000, 400, 80, 16, 3.2, 0.64, and 0.128 nM. The cells were cultured in a 37° C., 5% CO2 incubator for 20 h. Then 20 μL of the supernatant was added to 180 μL of the prepared alkaline phosphatase detection medium and incubated in the dark in a constant-temperature incubator at 37° C. for 120 min. Then the OD620 absorbance readings were taken on a microplate reader. The inhibition rate was calculated using the following formula: […]\nInhibition curves were plotted using Graphpad Prism software according to the concentrations of the compounds and the corresponding inhibition rates, and the concentrations of the compounds at which the inhibition rate reached 50%, i.e., IC50 values, were calculated and are shown in Table 1.",
  "data": [
    {"smiles": "Cc1cc(-c2[nH]c3cc4c(nc3c2C(C)C)CNCC4)cc(C)n1", "note": "[Example 1, 2-(2,6-Dimethylpyridin-4-yl)-3-isopropyl-5,6,7,8-tetrahydro-1H-pyrrolo[3,2-b][1,7]naphthyridine]", "values": [
      {"measurement": "IC50", "result": 7.7, "unit": "nM"}
    ]},
    {"smiles": "Cc1cc(-c2[nH]c3cc4c(nc3c2C(C)C)CN(C(C)C)CC4)cc(C)n1", "note": "[Example 2, 2-(2,6-Dimethylpyridin-4-yl)-3,6-diisopropyl-5,6,7,8-tetrahydro-1H-pyrrolo[3,2-b][1,7]naphthyridine]", "values": [
      {"measurement": "IC50", "result": 29.9, "unit": "nM"}
    ]},
    {"smiles": "Cc1cc(-c2[nH]c3cc4c(nc3c2C(C)C)CN(CCc2ccc(N3CCNCC3)nc2)CC4)cc(C)n1", "note": "[Example 4, 2-(2,6-Dimethylpyridin-4-yl)-3-isopropyl-6-(2-(6-(piperazin-4-yl)pyridin-3-yl)ethyl)-5,6,7,8-tetrahydro-1H-pyrrolo[3,2-b][1,7]naphthyridine]", "values": [
      {"measurement": "IC50", "result": 6.8, "unit": "nM"}
    ]},
    {"smiles": "Cc1cc(-c2[nH]c3cc4c(nc3c2C(C)C)CN(Cc2ccc(N3CCNCC3)cn2)CC4)cc(C)n1", "note": "[Example 5, 2-(2,6-Dimethylpyridin-4-yl)-3-isopropyl-6-((5-(piperazin-1-yl)pyridin-2-yl)methyl)-5,6,7,8-tetrahydro-1H-pyrrolo[3,2-b][1,7]naphthyridine]", "values": [
      {"measurement": "IC50", "result": 5.7, "unit": "nM"}
    ]},
    {"smiles": "Cc1cc(-c2[nH]c3cc4c(nc3c2C(C)C)CN(CC23CCC(N)(CC2)CC3)CC4)cc(C)n1", "note": "[Example 7, 4-((2-(2,6-Dimethylpyridin-4-yl)-3-isopropyl-1,5,7,8-tetrahydro-6H-pyrrolo[3,2-b][1,7]naphthyridin-6-yl)methyl)bicyclo[2.2.2]octyl-1-amine]", "values": [
      {"measurement": "IC50", "result": 7.1, "unit": "nM"}
    ]},
    {"smiles": "Cc1cc(-c2[nH]c3cc4c(nc3c2C(C)C)CN(CC(N)=O)CC4)cc(C)n1", "note": "[Example 8, 2-(2-(2,6-Dimethylpyridin-4-yl)-3-isopropyl-1,5,7,8-tetrahydro-6H-pyrrolo[3,2-b][1,7]naphthyridin-6-yl)acetamide]", "values": [
      {"measurement": "IC50", "result": 18.2, "unit": "nM"}
    ]},
    {"smiles": "Cc1c(-c2[nH]c3cc4c(nc3c2C(C)C)CNCC4)cn2ncnc2c1C", "note": "[Example 9, 2-(7,8-Dimethyl-[1,2,4]triazolo[1,5-a]pyridin-6-yl)-3-isopropyl-5,6,7,8-tetrahydro-1H-pyrrolo[3,2-b][1,7]naphthyridine]", "values": [
      {"measurement": "IC50", "result": 4.9, "unit": "nM"}
    ]},
    {"smiles": "Cc1c(-c2[nH]c3cc4c(nc3c2C(C)C)CN(CC(N)=O)CC4)cn2ncnc2c1C", "note": "[Example 10, 2-(2-(7,8-Dimethyl-[1,2,4]triazolo[1,5-a]pyridin-6-yl)-3-isopropyl-1,5,7,8-tetrahydro-6H-pyrrolo[3,2-b][1,7]naphthyridin-6-yl)acetamide]", "values": [
      {"measurement": "IC50", "result": 21.5, "unit": "nM"}
    ]}
  ]
}
